Test results published in ChEMBL document CHEMBL4840355, “Antitumor and toxicity study of mitochondria-targeted triptolide derivatives using triphenylphosphine (TPP+) as a carrier” (Bioorg Med Chem, 2021).
The source made the active and inactive calls. The calls are words filed in the database; no cut-off is given here.

Legend:
HepG2 [1] = assay: Induction of mitochondrial membrane potential loss in human HepG2 cells assessed as proportion of cells with hyperpolarized mitochondria at 75 nM measured after 48 hrs by JC-1 staining based flow cytometry analysis (Rvb= 80.9%); type: functional
HepG2 [2] = assay: Induction of mitochondrial membrane potential loss in human HepG2 cells assessed as proportion of cells with depolarized mitochondria at 150 nM measured after 48 hrs by JC-1 staining based flow cytometry analysis (Rvb= 9.1%); type: functional
[3] = Toxicity in zebrafish AB assessed as body length at 0.05 to 2 uM measured at 72 hrs postfertilization; set-up: species or system Danio rerio; conditions: in vivo, dose 0.05-2 µM
HepG2 [4] = assay: Induction of mitochondrial membrane potential loss in human HepG2 cells assessed as proportion of cells with depolarized mitochondria at 75 nM measured after 48 hrs by JC-1 staining based flow cytometry analysis (Rvb= 9.1%); type: functional
L02 = assay: Cytotoxicity against human HL7702 cells assessed as inhibition of cell proliferation measured after 48 hrs by MTT assay; type: cell-based; conditions: L02, 48 h
MCF7 = assay: Cytotoxicity against human MCF7 cells assessed as inhibition of cell proliferation measured after 48 hrs by MTT assay; type: functional, cell-based; conditions: MCF7, 48 h
PANC-1 = assay: Cytotoxicity against human PANC-1 cells assessed as inhibition of cell proliferation measured after 48 hrs by MTT assay; type: functional, cell-based; conditions: PANC-1, 48 h
HepG2 [5] = assay: Cytotoxicity against human HepG2 cells assessed as increase in release of LDH measured after 48 hrs by LDH assay; type: functional, cell-based; conditions: dose 100-200 nM
[6] = Toxicity in zebrafish AB assessed as mortality at 0.05 to 2 uM measured at 72 hrs postfertilization; set-up: species or system Danio rerio; conditions: in vivo, dose 0.05-2 µM
[7] = Drug uptake in mitochondria of human HepG2 cells at 10 uM incubated for 7 hrs by RP-HPLC method relative to TP; type: ADME; conditions: hepg2, 7 h
[8] = Toxicity in zebrafish AB assessed as mortality at <12 uM measured at 72 hrs postfertilization; set-up: species or system Danio rerio; conditions: in vivo
HepG2 [9] = assay: Induction of apoptosis in human HepG2 cells assessed as live cells at 100 nM measured after 48 hrs by Annexin V-FITC/PI double staining based flow cytometry analysis (Rvb= 94.8%); type: functional
[10] = Toxicity in zebrafish AB assessed as increase in hatching rate at 0.05 to 2 uM measured at 72 hrs postfertilization; set-up: species or system Danio rerio; conditions: in vivo, dose 0.05-2 µM
HepG2 [11] = assay: Induction of apoptosis in human HepG2 cells assessed as late apoptotic cells at 100 nM measured after 48 hrs by Annexin V-FITC/PI double staining based flow cytometry analysis (Rvb= 2.89%); type: functional
HepG2 [12] = assay: Induction of apoptosis in human HepG2 cells assessed as necrotic cells at 100 nM measured after 48 hrs by Annexin V-FITC/PI double staining based flow cytometry analysis (Rvb= 0.13%); type: functional
HepG2 [13] = assay: Induction of mitochondrial membrane potential loss in human HepG2 cells assessed as proportion of cells with hyperpolarized mitochondria at 50 nM measured after 48 hrs by JC-1 staining based flow cytometry analysis (Rvb= 80.9%); type: functional
[14] = Toxicity in zebrafish AB assessed as increase in embryo malformation rate at 0.05 to 2 uM measured at 72 hrs postfertilization; set-up: species or system Danio rerio; conditions: in vivo, dose 0.05-2 µM
HepG2 [15] = assay: Antitumor activity against human HepG2 cells xenografted in zebra fish AB assessed as tumor growth inhibition at 0.5 to 1 uM measured after 48 hrs by fluorescence microscopic analysis; type: functional, cell-based; conditions: dose 0.5-1 µM
NCI-H1299 = assay: Cytotoxicity against human NCI-H1299 cells assessed as inhibition of cell proliferation measured after 48 hrs by MTT assay; type: functional, cell-based; conditions: NCI-H1299, 48 h
HepG2 [16] = assay: Cytotoxicity against human HepG2 cells assessed as inhibition of cell proliferation measured after 48 hrs by MTT assay; type: functional, cell-based; conditions: HepG2, 48 h
HepG2 [17] = assay: Induction of apoptosis in human HepG2 cells assessed as necrotic cells at 75 nM measured after 48 hrs by Annexin V-FITC/PI double staining based flow cytometry analysis (Rvb= 0.13%); type: functional
HepG2 [18] = assay: Induction of mitochondrial membrane potential loss in human HepG2 cells assessed as proportion of cells with hyperpolarized mitochondria at 100 nM measured after 48 hrs by JC-1 staining based flow cytometry analysis (Rvb= 80.9%); type: functional
HepG2 [19] = assay: Induction of apoptosis in human HepG2 cells assessed as early apoptotic cells at 150 nM measured after 48 hrs by Annexin V-FITC/PI double staining based flow cytometry analysis (Rvb= 2.16%); type: functional
HepG2 [20] = assay: Induction of apoptosis in human HepG2 cells assessed as early apoptotic cells at 100 nM measured after 48 hrs by Annexin V-FITC/PI double staining based flow cytometry analysis (Rvb= 2.16%); type: functional
HeLa = assay: Cytotoxicity against human HeLa cells assessed as inhibition of cell proliferation measured after 48 hrs by MTT assay; type: functional, cell-based
HepG2 [21] = assay: Induction of apoptosis in human HepG2 cells assessed as early apoptotic cells at 75 nM measured after 48 hrs by Annexin V-FITC/PI double staining based flow cytometry analysis (Rvb= 2.16%); type: functional
[22] = Cytotoxicity against human HBE cells assessed as inhibition of cell proliferation measured after 48 hrs by MTT assay; type: cell-based
HepG2 [23] = assay: Induction of mitochondrial membrane potential loss in human HepG2 cells assessed as proportion of cells with depolarized mitochondria at 200 nM measured after 48 hrs by JC-1 staining based flow cytometry analysis (Rvb= 9.1%); type: functional
HepG2 [24] = assay: Induction of apoptosis in human HepG2 cells assessed as live cells at 150 nM measured after 48 hrs by Annexin V-FITC/PI double staining based flow cytometry analysis (Rvb= 94.8%); type: functional
HepG2 [25] = assay: Induction of mitochondrial membrane potential loss in human HepG2 cells assessed as proportion of cells with hyperpolarized mitochondria at 200 nM measured after 48 hrs by JC-1 staining based flow cytometry analysis (Rvb= 80.9%); type: functional
HepG2 [26] = assay: Induction of apoptosis in human HepG2 cells assessed as early apoptotic cells at 50 nM measured after 48 hrs by Annexin V-FITC/PI double staining based flow cytometry analysis (Rvb= 2.16%); type: functional
NCI-H1975 = assay: Cytotoxicity against human NCI-H1975 cells assessed as inhibition of cell proliferation measured after 48 hrs by MTT assay; type: functional, cell-based; conditions: NCI-H1975, 48 h
HepG2 [27] = assay: Induction of ROS generation in human HepG2 cells assessed as increase in ROS level at 50 to 150 nM measured after 48 hrs by DCFH-DA staining based flow cytometry analysis; type: functional, cell-based; conditions: dose 50-150 nM
[28] = Toxicity in zebrafish AB assessed as malformation rate at <12 uM measured at 72 hrs postfertilization; set-up: species or system Danio rerio; conditions: in vivo
HepG2 [29] = assay: Induction of mitochondrial membrane potential loss in human HepG2 cells assessed as proportion of cells with depolarized mitochondria at 100 nM measured after 48 hrs by JC-1 staining based flow cytometry analysis (Rvb= 9.1%); type: functional
HepG2 [30] = assay: Induction of apoptosis in human HepG2 cells assessed as late apoptotic cells at 150 nM measured after 48 hrs by Annexin V-FITC/PI double staining based flow cytometry analysis (Rvb= 2.89%); type: functional

For `CC(C)[C@]12O[C@H]1[C@@H]1O[C@]13[C@]1(O[C@H]1C[C@H]1C4=C(CC[C@@]13C)C(=O)OC4)[C@@H]2OC(=O)CCCCC[P+](c1ccccc1)(c1ccccc1)c1ccccc1.[Br-]`, the Activity (HepG2 [1]) was 64.4%, the Activity (HepG2 [2]) was 48.9% and the Activity [3] was “Non-Toxic”. It also gave an Activity (HepG2 [4]) of 35.6%, an IC50 (L02) of 0.334 µM and an IC50 (MCF7) of 0.238 µM. For the same compound, the IC50 (PANC-1) was 0.349 µM, the Activity (HepG2 [5]) was “Dose-Dependent Effect” and the Activity [6] was “Non-Toxic”. The “fold change (FC)” value [7] was 3, the Activity [8] was “Non-Toxic” and the Activity (HepG2 [9]) was 59.9%. For the same compound, the Activity [10] was “Non-Toxic”, the Activity (HepG2 [11]) was 12.1% and the Activity (HepG2 [12]) was 0.18%. The Activity (HepG2 [13]) was 74.7%, the Activity [14] was “Non-Toxic” and the Activity (HepG2 [15]) was “Active”. It also gave an IC50 (NCI-H1299) of 0.254 µM, an IC50 (HepG2 [16]) of 0.067 µM and an Activity (HepG2 [17]) of 0.17%. It also gave an Activity (HepG2 [18]) of 54.4%, an Activity (HepG2 [19]) of 33.7% and an Activity (HepG2 [20]) of 27.8%. The IC50 (HeLa) was 0.325 µM, the Activity (HepG2 [21]) was 15.5% and the IC50 [22] was 0.21 µM. The Activity (HepG2 [23]) was 55.7%, the Activity (HepG2 [24]) was 49.6% and the Activity (HepG2 [25]) was 44.3%. The Activity (HepG2 [26]) was 3.89%, the IC50 (NCI-H1975) was 0.088 µM and the Activity (HepG2 [27]) was “Active”. For the same compound, the Activity [28] was “Non-Toxic”, the Activity (HepG2 [29]) was 45.6% and the Activity (HepG2 [30]) was 16.6%.
